Measurements taken from US20250127787A1, “METHODS FOR TREATING PERIPHERAL NEUROPATHY” (University of Pittsburgh - Of the Commonwealth System of …, priority 2021, published 2025).
“Also recorded” adds a separate entry of the source.

Assays:
[1] = tested on: sciatic nerve-crush rats; experiment: Von Frey sensory testing after sciatic nerve crush; assay type: in vivo, rat; settings: hindpaw footpad, day 2 and day 5 post injury, 8-AG 5 mg/kg/day in drinking water
Procedure: Animals. This study employed female Harlan Sprague Dawley (HSD) rats (3-4 mo; Envigo, Indianapolis, IN) and were divided into the following groups: 1) Control, 2) Sciatic nerve crush (day 0, sacrifice on day 6); 3) 8-aminoguanine (8-AG; 5 mg/kg/day in drinking water; beginning 2 weeks prior to nerve crush and continuing until sacrifice (day 6)). The dose of 8-AG is based on the work above and published experiments. Further, the water consumption/day was tracked. […] All tissues (hindpaw epidermis) were removed from isoflurane anesthetized rats and the tissue was used for various experimental approaches as described below. At the end of tissue removal, animals were sacrificed by thoracotomy.
Von Frey sensory testing. Control, sciatic nerve crush (one of the most common models of peripheral nerve injury in rodents) and 8-AG-treated sciatic nerve-crush rats were placed in an elevated chamber on a wire mesh floor and after acclimatization, calibrated von Frey microfilaments were applied to determine paw withdrawal threshold (PWT, in grams). Briefly, microfilaments (Stoelting Corp, USA) were applied with different forces perpendicularly to the plantar surface of both ipsilateral and contralateral hindpaw by increasing and decreasing stimulus intensity. […]

[2] = tested on: CYP—CIPN rats; experiment: Von Frey sensory testing in CYP-CIPN rats; assay type: in vivo, rat; settings: hindpaw, 8-AG 5 mg/kg/day in drinking water
Procedure: (§1) Animals. This study employed female Harlan Sprague Dawley (HSD) rats (3-4 mo; Envigo, Indianapolis, IN) and were divided into the following groups: 1) Control, 2) Cyclophosphamide (CYP, 75 mg/kg i.p. in saline vehicle; administered on days 0, 3 and 6); 3) 8-aminoguanine (8-AG; 5 mg/kg/day in drinking water; beginning 2 weeks prior to CYP and continuing until sacrifice (day 8)). The dose of 8-AG is based on our preliminary and published experiments. […] The investigation conforms to the Guide for the Care and Use of Laboratory Animals published by the US National Institutes of Health (NIH Publication No. 85-23, revised 1996). In addition, all tissues (dorsal root ganglion, spinal cord, peripheral nerves and hindpaw epidermis) were removed from isoflurane anesthetized rats and the tissue was used for various experimental approaches as described below. At the end of tissue removal, animals were sacrificed by thoracotomy.
Control, CYP and 8-AG-treated CYP rats were placed in an elevated chamber on a wire mesh floor and after acclimatization, calibrated von Frey microfilaments were applied to determine paw withdrawal threshold (PWT, in grams). Briefly, microfilaments (Stoelting Corp, USA) are applied with different forces perpendicularly to the plantar surface of both ipsilateral and contralateral hindpaw by increasing and decreasing stimulus intensity. […]

[3] = tested on: protein carbonylation; experiment: Protein carbonylation in CYP-CIPN rat hindpaw epidermis; assay type: in vivo; settings: 8-AG 5 mg/kg/day in drinking water
Procedure: as §1, with “In addition, all tissues (dorsal root ganglion, spinal cord, peripheral nerves and hindpaw epidermis) were removed from isoflurane anesthetized rats and the tissue was used for various experimental approaches as described below. At the end of tissue removal, animals were sacrificed by thoracotomy.” left out
(§2) Western immunoblotting: Following the testing paradigms, rats were deeply anesthetized and tissues (e.g., epidermis, peripheral sciatic nerves, spinal cord segments (L3-L5) and dorsal root ganglia (L3-L5) were removed, and a portion of each preparation was homogenized using Lysing Matrix D in a FASTPREP® 24 instrument (MP Biomedicals, Solon, OH) in HBSS [5 mM KCl, 0.3 mM KH2PO4, 138 mM NaCl, 4 mM NaHO3, 0.3 mM Na2HCO3, 0.3 mM Na2HPO4, 5.6 mM glucose and 10 mM Hepes, pH 7.4 containing complete protease inhibitor cocktail (1 tablet/10 ml, Roche, Indianapolis, IN)] and phosphatase inhibitor cocktail (Sigma, 1:100). […] The protein concentrations of the supernatants were determined using the Pierce BCA protein assay (Thermo Scientific, Rockford, IL). […]

[4] = tested on: mitofusin 2 (MFN2); experiment: MFN2 expression in CYP-CIPN rat hindpaw epidermis, Western immunoblotting; assay type: in vivo; settings: 8-AG 5 mg/kg/day in drinking water
Procedure: as §1, with “In addition, all tissues (dorsal root ganglion, spinal cord, peripheral nerves and hindpaw epidermis) were removed from isoflurane anesthetized rats and the tissue was used for various experimental approaches as described below. At the end of tissue removal, animals were sacrificed by thoracotomy.” left out
as §2

[5] = tested on: glutathione peroxidase (GPx); experiment: Glutathione peroxidase activity in CYP-CIPN rat tissues; assay type: in vivo; settings: 8-AG 5 mg/kg/day in drinking water
Procedure: as §1, with “In addition, all tissues (dorsal root ganglion, spinal cord, peripheral nerves and hindpaw epidermis) were removed from isoflurane anesthetized rats and the tissue was used for various experimental approaches as described below. At the end of tissue removal, animals were sacrificed by thoracotomy.” left out
as §2

For `Nc1nc2[nH]c(N)nc2c(=O)[nH]1` [8-AG, 8-Aminoguanine], the “effect on injury-induced increase in sensitivity to mechanical stimuli (paw withdrawal threshold)” value [1] was “restored to control values; also recorded: normalized”, the “effect on injury-induced increase in sensitivity to mechanical stimuli (paw withdrawal threshold)” value ([1]; listed as 8-Aminoguanine) was “normalized” and the “effect on CYP-induced increase in sensitivity to mechanical stimuli (paw withdrawal threshold)” value [2] was “restored to control values; also recorded: normalizes; also recorded: normalized to control conditions”. For the same compound, the “effect on CYP-induced protein carbonylation” value [3] was “completely prevents; also recorded: restored values to that of a control state”, the “effect on CYP-induced decrease in MFN2 expression” value [4] was “reversed” and the “effect on CYP-induced increase in GPx activity” value ([5]; epidermis) was “significantly decreased; also recorded: restored values to that of a control state”. The “effect on CYP-induced increase in GPx activity” value ([5]; peripheral (sciatic) nerves) was “normalized; also recorded: prevented”.
